Reference: ChEMBL document CHEMBL4483862, “Open-source discovery of chemical leads for next-generation chemoprotective antimalarials” (2018)

Tested on: Plasmodium berghei
Assay: Luciferase/luciferin-expressing antifolate-resistant parasites were used to infect a culture of HepG2 cells that were pre-incubated with compounds. Infected hepatocytes emit light due to the luciferase reaction. Assay results are presented as the percent inhibition of light emission compared to control. […]
Assay type: functional
Details: sporozoite; for IC90: read-out: LUCIFERASE INFECTION ASSAY - IC90

Row | SMILES | IC90 [µM] | further results
1 | CCCCNC(=O)c1c(NC(=O)COc2ccccc2)nc2ccccn12 | > 9.01 | IC50 (FFLUC_HILL_SLOPE 15.1, FFLUC_R_SQUARED 0.601, PBLUC_HILL_SLOPE 2.91, PBLUC_R_SQUARED 0.515, read-out: LUCIFERASE INFECTION ASSAY - IC50): 5.13 µM
2 | Clc1ccc(-c2cnc3cnc(-c4ccco4)cn23)cc1 | > 11.2 | IC50 (FFLUC_HILL_SLOPE 15, FFLUC_R_SQUARED 0.745, PBLUC_HILL_SLOPE 1.06, PBLUC_R_SQUARED 0.544, read-out: LUCIFERASE INFECTION ASSAY - IC50): 7.89 µM
3 | Cc1ccc(C(=O)Cn2c(=O)n(C3CCCCC3)c(=O)c3ccccc32)cc1 | > 8.77 | IC50 (FFLUC_HILL_SLOPE 15.7, FFLUC_R_SQUARED 0.382, PBLUC_HILL_SLOPE 31.1, PBLUC_R_SQUARED 0.0716, read-out: LUCIFERASE INFECTION ASSAY - IC50): > 8.77 µM
4 | Cc1c(C(=O)C(F)(F)F)c(-c2nn(-c3ccccc3)c(NC(=O)C(F)(F)F)c2C(=O)C(F)(F)F)c(C)n1-c1ccc(Br)cc1 | > 10 | IC50 (FFLUC_HILL_SLOPE 15.1, FFLUC_R_SQUARED 0.397, PBLUC_HILL_SLOPE 2.07, PBLUC_R_SQUARED 0.0694, read-out: LUCIFERASE INFECTION ASSAY - IC50): 6.64 µM
5 | COC(=O)c1ccc(O)c(CSc2ccc(Cl)cc2)c1 | > 10.7 | IC50 (FFLUC_HILL_SLOPE 15.4, FFLUC_R_SQUARED 0.267, PBLUC_HILL_SLOPE 7.94, PBLUC_R_SQUARED 0.227, read-out: LUCIFERASE INFECTION ASSAY - IC50): 8.54 µM
6 | Cc1oc2cc(OCC(=O)N3CCc4ccccc43)ccc2c(=O)c1-c1c(F)cccc1Cl | > 10 | IC50 (FFLUC_HILL_SLOPE 15.3, FFLUC_R_SQUARED 0.621, read-out: LUCIFERASE INFECTION ASSAY - IC50): > 10 µM
7 | Clc1ccc(-c2cnc3cnc(-c4cnn(Cc5ccccc5)c4)cn23)cc1 | 3.3 | IC50 (FFLUC_HILL_SLOPE 15.7, FFLUC_R_SQUARED 0.271, HEPG2TOX_HILL_SLOPE 2.48, HEPG2TOX_R_SQUARED 0.0283, PBLUC_HILL_SLOPE 11.5, PBLUC_R_SQUARED 0.641, read-out: LUCIFERASE INFECTION ASSAY - IC50): 2.73 µM
8 | CCCNC(=O)c1c(NC(=O)c2ccc(C)cc2)nc2ccc(C)cn12 | 4.76 | IC50 (FFLUC_HILL_SLOPE 15.6, FFLUC_R_SQUARED 0.337, HEPG2TOX_HILL_SLOPE 1.6, HEPG2TOX_R_SQUARED 0.209, PBLUC_HILL_SLOPE 10.4, PBLUC_R_SQUARED 0.336, read-out: LUCIFERASE INFECTION ASSAY - IC50): 3.85 µM
9 | Cc1ccc(CNC(=O)c2cc(-c3ccccc3)nn2-c2ccccc2)cc1 | > 10 | IC50 (FFLUC_HILL_SLOPE 15.6, FFLUC_R_SQUARED 0.349, read-out: LUCIFERASE INFECTION ASSAY - IC50): > 10 µM
10 | CCN(CC)c1ccc(NC(=O)c2cccc(N3C(=O)c4ccccc4C3=O)c2)cc1S(=O)(=O)Nc1ccccc1OC | > 10 | IC50 (FFLUC_HILL_SLOPE 15.4, FFLUC_R_SQUARED 0.773, PBLUC_HILL_SLOPE 13.2, PBLUC_R_SQUARED 0.21, read-out: LUCIFERASE INFECTION ASSAY - IC50): 9.38 µM
11 | O=S(=O)(Nc1ccc(C(F)(F)F)cc1)c1ccc(S(=O)(=O)c2ncc(C(F)(F)F)cc2Cl)s1 | > 5.99 | IC50 (FFLUC_HILL_SLOPE 15.7, FFLUC_R_SQUARED 0.198, HEPG2TOX_HILL_SLOPE 0.681, HEPG2TOX_R_SQUARED 0.155, read-out: LUCIFERASE INFECTION ASSAY - IC50): > 5.99 µM
12 | CC1CC(OCC(O)CN2CCN(c3ccc(F)cc3)CC2)CC(C)(C)C1 (stereo not given) | > 7.31 | IC50 (FFLUC_HILL_SLOPE 15.4, FFLUC_R_SQUARED 0.216, PBLUC_HILL_SLOPE 1.14, PBLUC_R_SQUARED 0.115, read-out: LUCIFERASE INFECTION ASSAY - IC50): > 7.31 µM
13 | O=C1C=C(c2ccc(Cl)cc2)C(=O)N1Nc1ccc(Cl)cc1Cl | > 8.98 | IC50 (FFLUC_HILL_SLOPE 15.4, FFLUC_R_SQUARED 0.324, HEPG2TOX_HILL_SLOPE 12.8, HEPG2TOX_R_SQUARED 0.543, PBLUC_HILL_SLOPE 10.1, PBLUC_R_SQUARED 0.012, read-out: LUCIFERASE INFECTION ASSAY - IC50): 8.35 µM
14 | Cc1[nH]c2ccccc2c1/C=N/n1c(-c2ccc(Cl)cc2Cl)cs/c1=N\CC1CCCO1 (stereo not given) | 6.77 | IC50 (FFLUC_HILL_SLOPE 15.4, FFLUC_R_SQUARED 0.637, HEPG2TOX_HILL_SLOPE 0.309, HEPG2TOX_R_SQUARED 0.658, PBLUC_HILL_SLOPE 1.1, PBLUC_R_SQUARED 0.559, read-out: LUCIFERASE INFECTION ASSAY - IC50): 0.923 µM
15 | CCOC(=O)/C(C)=N/Nc1ccc(OC(F)(F)F)cc1 | > 11.4 | IC50 (FFLUC_HILL_SLOPE 15.6, FFLUC_R_SQUARED 0.429, HEPG2TOX_HILL_SLOPE 8.88, HEPG2TOX_R_SQUARED 0.352, PBLUC_HILL_SLOPE 1.63, PBLUC_R_SQUARED 0.496, read-out: LUCIFERASE INFECTION ASSAY - IC50): 9.31 µM
16 | O=[N+]([O-])c1cc(Cl)ccc1N1CCN(c2ncnc3sc4c(c23)CCC4)CC1 | > 10 | IC50 (FFLUC_HILL_SLOPE 15.4, FFLUC_R_SQUARED 0.646, read-out: LUCIFERASE INFECTION ASSAY - IC50): > 10 µM
17 | COc1ccc(Cl)cc1NC(=O)C(C)N1CCC(c2c[nH]c3ccccc23)CC1 (stereo not given) | 4.83 | IC50 (FFLUC_HILL_SLOPE 15.4, FFLUC_R_SQUARED 0.69, PBLUC_HILL_SLOPE 100, PBLUC_R_SQUARED 0.101, read-out: LUCIFERASE INFECTION ASSAY - IC50): 4.73 µM
18 | Cc1ccc2nc(NC(=O)c3ccc(F)c(F)c3)c(C(=O)NC3CCCC3)n2c1 | 1.33 | IC50 (FFLUC_HILL_SLOPE 15.6, FFLUC_R_SQUARED 0.751, HEPG2TOX_HILL_SLOPE 0.983, HEPG2TOX_R_SQUARED 0.896, PBLUC_HILL_SLOPE 4.3, PBLUC_R_SQUARED 0.744, read-out: LUCIFERASE INFECTION ASSAY - IC50): 0.8 µM
19 | O=C(NC1CCN(Cc2ccccc2)C1)c1cc2cc(Br)ccc2[nH]1 (stereo not given) | > 10 | IC50 (FFLUC_HILL_SLOPE 15.5, FFLUC_R_SQUARED 0.545, HEPG2TOX_HILL_SLOPE 1.06, HEPG2TOX_R_SQUARED 0.919, PBLUC_HILL_SLOPE 3.35, PBLUC_R_SQUARED 0.069, read-out: LUCIFERASE INFECTION ASSAY - IC50): 7.09 µM
20 | CC(C)N(C(=O)COC(=O)C1=NNC(=O)CC1)C(C)C | > 10 | IC50 (FFLUC_HILL_SLOPE 15.7, FFLUC_R_SQUARED 0.158, read-out: LUCIFERASE INFECTION ASSAY - IC50): > 10 µM
21 | CCOc1ccc(/C=C/C2=Cc3c(sc(NC(=O)COC(=O)c4cccc(S(=O)(=O)N5CCc6ccccc65)c4)c3C#N)C(C)(C)C2)cc1 | > 10 | IC50 (FFLUC_HILL_SLOPE 15.6, FFLUC_R_SQUARED 0.606, read-out: LUCIFERASE INFECTION ASSAY - IC50): > 10 µM
22 | c1ccc(Sc2c(-c3ccccc3)cc3ccccn23)cc1 | 9.91 | IC50 (FFLUC_HILL_SLOPE 15.3, FFLUC_R_SQUARED 0.586, PBLUC_HILL_SLOPE 15.5, PBLUC_R_SQUARED 0.389, read-out: LUCIFERASE INFECTION ASSAY - IC50): 8.6 µM
23 | Cc1cc(C)c(-c2csc(NC(=O)c3cc(-c4ccccc4)nn3-c3ccccc3)n2)c(C)c1 | > 10 | IC50 (FFLUC_HILL_SLOPE 15.4, FFLUC_R_SQUARED 0.775, read-out: LUCIFERASE INFECTION ASSAY - IC50): > 10 µM
24 | OCc1ccc(-c2cnc3ccc(-c4cccc(OC(F)(F)F)c4)nn23)cc1 | 3.46 | IC50 (FFLUC_HILL_SLOPE 15.5, FFLUC_R_SQUARED 0.126, HEPG2TOX_HILL_SLOPE 8.34, HEPG2TOX_R_SQUARED 0.955, PBLUC_HILL_SLOPE 1.79, PBLUC_R_SQUARED 0.869, read-out: LUCIFERASE INFECTION ASSAY - IC50): 1.01 µM
25 | COC(=O)c1sc(N)c(C(=O)OC)c1COC(=O)/C=C/c1ccc(OC(F)F)cc1 | > 10 | IC50 (FFLUC_HILL_SLOPE 15.7, FFLUC_R_SQUARED 0.211, read-out: LUCIFERASE INFECTION ASSAY - IC50): > 10 µM
26 | O=C(c1cn(-c2ccccc2)nc1-c1cccs1)N1c2ccccc2CCc2ccccc21 | > 10 | IC50 (FFLUC_HILL_SLOPE 15.3, FFLUC_R_SQUARED 0.476, HEPG2TOX_HILL_SLOPE 1.99, HEPG2TOX_R_SQUARED 0.329, PBLUC_HILL_SLOPE 2.58, PBLUC_R_SQUARED 0.689, read-out: LUCIFERASE INFECTION ASSAY - IC50): 6.76 µM
27 | COC(=O)c1ccc(-n2c(C)cc(-c3csc(NC(=O)/C=C/c4ccccc4[N+](=O)[O-])n3)c2C)cc1 | > 10 | IC50 (FFLUC_HILL_SLOPE 15.6, FFLUC_R_SQUARED 0.621, read-out: LUCIFERASE INFECTION ASSAY - IC50): > 10 µM
28 | CCCn1c(NC(=O)C2CCCN(S(=O)(=O)c3cccs3)C2)nc2ccccc21 (stereo not given) | > 10 | IC50 (FFLUC_HILL_SLOPE 15.6, FFLUC_R_SQUARED 0.229, read-out: LUCIFERASE INFECTION ASSAY - IC50): > 10 µM
29 | N#Cc1ccc(/C=N/NC(=O)c2ccc(COc3ccccc3-c3ccccc3)cc2)cc1 | 9.24 | IC50 (FFLUC_HILL_SLOPE 15.4, FFLUC_R_SQUARED 0.374, HEPG2TOX_HILL_SLOPE 8.76, HEPG2TOX_R_SQUARED 0.561, PBLUC_HILL_SLOPE 30.2, PBLUC_R_SQUARED 0.437, read-out: LUCIFERASE INFECTION ASSAY - IC50): 8.6 µM
30 | COc1cc(NC(=O)c2sccc2Oc2ccc(C(F)(F)F)cc2[N+](=O)[O-])c(Cl)cc1Cl | 5.34 | IC50 (FFLUC_HILL_SLOPE 15.3, FFLUC_R_SQUARED 0.803, PBLUC_HILL_SLOPE 1.96, PBLUC_R_SQUARED 0.575, read-out: LUCIFERASE INFECTION ASSAY - IC50): 1.74 µM
